Patent publication US4487763A, “Peptide, process for preparation thereof and use thereof” (Fujisawa Pharmaceutical Co., Ltd., priority 1979, dated 1984)

What was measured:
[1] = test system: Mice (DDY male 5-6 W); assay: Blood stream clearance of carbon; type: in vivo; conditions: carbon clearance measured 24 hours later
Method: 1. Carbon suspension. Rotoring drawing ink (170 mg carbon/ml.) was diluted to 1/5 of the original concentration in saline containing 1% gelatin. 2. 0.1% aqueous sodium carbonate solution. Mice (DDY male 5-6 W) were injected via the tail vein with a dose of 0.01 ml/g body weight of carbon. Blood samples were taken by means of a pointed capillary […] calibrated to hold a 50 μl and previously washed in heparin. This was plunged into the retroorbital venous sinus at the nasal angle of the eye. The samples were removed at 3 and 6 min. The blood was immediately discharged into 3.0 ml. of the sodium carbonate solution. This hemolyzed the blood and allowed the quantitation of carbon. The samples were then read in a spectrophotometer at 660 nm, the log concentration being obtained from a previously determined standard curve. The clearance value K may be determined by plotting log carbon concentration against time according to the following relationship; [formula] in which T1 and T2 represent the time in min when the sample were withdrawn and C1 and C2 represent the concentrations of carbon in the blood at the time T1 and T2, respectively. The aqueous solution of the drug as given was administered subcutaneously to mice. Twenty four hours later, blood stream clearance of carbon was measured. K value obtained with treated mice was compared with that of control mice.

[2] = test system: E. coli 22; assay: Protective efficacy in experimental infection in mice; type: in vivo; conditions: male ICR mice, survival after four days
Method: In determining the protective efficacy against experimental infections in mice, the test compound was dissolved in and diluted with sterile saline to provide prescribed concentrations of drug.
Male ICR-strain mice, aged 4 weeks were used in groups of ten mice. E. coli 22 was cultivated overnight at 37° C. on trypticase soy agar and then were suspended in a sterile saline to obtain microbial cell concentration of 9.0×10^7 CFU/ml. Mice were inoculated intraperitoneally with 0.2 ml of the suspension. Each of the test drugs was given intraperitoneally in various doses to a group of ten mice 24 hours before challenge.
Survival percent were found from the number of the surviving animals after four days of injection.

With “D-Lac-L-Ala-γ-D-Glu(α-OH)-(L)-[D-Lac-L-Ala-γ-D-Glu(α-OH)-(L)-mesoDAP-(D)-Gly]-(D)-mesoDAP-(L)-GlyOH [Example 13 (Step 2)]” the “K treated/K control” value ([1]; dose 1 mg/mouse subcutaneously) was 0.6, the “K treated/K control” value ([1]; dose 100 mg/mouse subcutaneously) was 1.6 and the “Survival (%)” value ([2]; dose 1 mg/kg intraperitoneally 24 hours before challenge) was 100%. For the same substance, the “Survival (%)” value ([2]; dose 10 mg/kg intraperitoneally 24 hours before challenge) was 100%.
